From ChEMBL document CHEMBL5728913, “Indoleamine 2,3-dioxygenase inhibitor, method for preparation and use thereof” (2022)
“And” between values parts separate entries of the source, which are not always exact repeats. Equal entries are not always repeated.

target: Indoleamine 2,3-dioxygenase 1 (Homo sapiens, UniProt P14902); experiment: Inhibitory Activity Assay: 1. […] Reagent Preparation100 mM PBS:100 mM disodium hydrogen phosphate and 100 mM potassium dihydrogen phosphate mixed in a ratio of 3:5, pH 6.5IDO1 assay buffer:100 mM PBS containing 400 μM L-tryptophan, 20 mM ascorbate, 20 μM methylene blue and 1000 U/ml catalase, pH 6.530% trichloroacetic acidddH2 O solution of 30% trichloroacetic acidEhrlich reagent1% (w/v) diluted solution of 4-(dimethylamino) benzaldehyde compoundAll compounds were dissolved with DMSO. During the assay, each compound was diluted to a concentration as needed. The compound of each concentration was added to multi-wells, and the final concentration of DMSO was controlled at 1%.3. Test Methoda.) the reaction mixture was prepared by adding 50 nM IDO1 and the desired concentration of the test compound to 100 μL of IDO1 assay buffer. IDO1 and assay buffer need to be preheated to 37° C.b.) The mixture was reacted in a constant temperature water tank at 37° C. for 30 minutes.c.) 50 μL of 30% trichloroacetic acid was added.d.) The above mixture was reacted in a constant temperature water tank at 52° C. for 30 minutes.e.) The reaction mixture was centrifuged at 12000 g for 10 minutes at room temperature.f.) 100 μL of the obtained supernatant and 100 μL of Ehrlich reagent were mixed.g.) the absorbance at 480 nm was measured using an M5 microplate reader.4. Data AnalysisInhibition rate=(ODpostive−ODsample)/(ODpositive−ODnegative)*100%5. Results and Discussion
Sequence (P14902 whole entry): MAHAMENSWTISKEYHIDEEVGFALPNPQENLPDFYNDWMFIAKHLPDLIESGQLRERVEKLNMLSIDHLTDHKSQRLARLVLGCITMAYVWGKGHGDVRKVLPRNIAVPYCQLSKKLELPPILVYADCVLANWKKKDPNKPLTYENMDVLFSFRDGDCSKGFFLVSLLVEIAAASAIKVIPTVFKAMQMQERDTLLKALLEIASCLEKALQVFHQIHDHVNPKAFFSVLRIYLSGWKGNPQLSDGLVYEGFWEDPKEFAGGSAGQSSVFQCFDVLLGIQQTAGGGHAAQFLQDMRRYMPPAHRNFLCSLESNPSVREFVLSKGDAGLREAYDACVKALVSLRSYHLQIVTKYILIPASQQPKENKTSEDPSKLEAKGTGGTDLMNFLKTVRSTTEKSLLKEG

| SMILES | IC50 |
| --- | --- |
| O=C(Nc1ccccc1)ONc1nonc1/C(=N/O)Nc1ccc(F)c(Br)c1 | 48 nM |
| NS(=O)(=O)NCC1(CONc2nonc2/C(=N/O)Nc2ccc(F)c(Br)c2)CC1 | 82 nM |
| NC(=O)C(N)CCONc1nonc1/C(=N/O)Nc1ccc(F)c(Br)c1 (stereo not drawn) | 85 nM |
| O=C(NCCONc1nonc1/C(=N/O)Nc1ccc(F)c(Br)c1)NC1CCCC1 | 69 nM |
| CCCCONc1nonc1/C(=N/O)Nc1ccc(F)c(Br)c1 | 80 nM |
| O/N=C(\Nc1ccc(F)c(Br)c1)c1nonc1NOC1CCCNC1 (stereo not drawn) | 80 nM |
| CC(=O)ONc1nonc1/C(=N/O)Nc1ccc(F)c(Br)c1 | 92 nM |
| CSNc1nonc1/C(=N/O)Nc1ccc(F)c(Cl)c1 | 53 nM |
| O=C(NCCONc1nonc1/C(=N/O)Nc1ccc(F)c(Br)c1)Nc1cc(F)cc(F)c1 | 12 nM |
| O=C(NCCOCCONc1nonc1/C(=N/O)Nc1ccc(F)c(Br)c1)Nc1cc(F)cc(F)c1 | 72 nM |
| O=C1C=CC(=O)N1CCONc1nonc1/C(=N/O)Nc1ccc(F)c(Cl)c1 | 32 nM and 58 nM |
| O/N=C(\Nc1ccc(F)c(Br)c1)c1nonc1NO | 125 nM |
| CC(C)OC(=O)NCCONc1nonc1/C(=N/O)Nc1ccc(F)c(Br)c1 | 36 nM and 28 nM |
| O/N=C(\Nc1ccc(F)c(Br)c1)c1nonc1NOCCN1CCCC1 | 108 nM |
| O=C(ONc1nonc1/C(=N/O)Nc1ccc(F)c(Br)c1)c1ccccc1 | 65 nM |
| NS(=O)(=O)N1CCC(ONc2nonc2/C(=N/O)Nc2ccc(F)c(Br)c2)CC1 | 65 nM |
| CC(=O)NCCONc1nonc1/C(=N/O)Nc1ccc(F)c(Br)c1 | 162 nM |
| O/N=C(\Nc1ccc(F)c(Br)c1)c1nonc1NOCCN1CCOCC1 | 43 nM and 38 nM |
| NC1CCC(ONc2nonc2/C(=N/O)Nc2ccc(F)c(Br)c2)CC1 (stereo not drawn) | 184 nM |
| NCCONc1nonc1/C(=N/O)Nc1ccc(F)c(Br)c1 | 35 nM and 43 nM |
| O=C1CCC(=O)N1CCONc1nonc1/C(=N/O)Nc1ccc(F)c(Br)c1 | 96 nM |
| O/N=C(\Nc1ccc(F)c(Br)c1)c1nonc1NOCCOc1ccccc1 | 120 nM |
| O/N=C(\Nc1ccc(F)c(Cl)c1)c1nonc1NS | 104 nM |
